Assay results reported in patent US20060045953A1 (priority 2004, published 2006).

Target: T1, hT1R2/hT1R3 sweet receptor (Homo sapiens, UniProt Q7RTX0+Q8TE23)
T1 construct: expressed in transfected cells; host or cells: HEK293 derivative stably expressing Gα15, clone S-9
T1 sequence (Q8TE23 20-839): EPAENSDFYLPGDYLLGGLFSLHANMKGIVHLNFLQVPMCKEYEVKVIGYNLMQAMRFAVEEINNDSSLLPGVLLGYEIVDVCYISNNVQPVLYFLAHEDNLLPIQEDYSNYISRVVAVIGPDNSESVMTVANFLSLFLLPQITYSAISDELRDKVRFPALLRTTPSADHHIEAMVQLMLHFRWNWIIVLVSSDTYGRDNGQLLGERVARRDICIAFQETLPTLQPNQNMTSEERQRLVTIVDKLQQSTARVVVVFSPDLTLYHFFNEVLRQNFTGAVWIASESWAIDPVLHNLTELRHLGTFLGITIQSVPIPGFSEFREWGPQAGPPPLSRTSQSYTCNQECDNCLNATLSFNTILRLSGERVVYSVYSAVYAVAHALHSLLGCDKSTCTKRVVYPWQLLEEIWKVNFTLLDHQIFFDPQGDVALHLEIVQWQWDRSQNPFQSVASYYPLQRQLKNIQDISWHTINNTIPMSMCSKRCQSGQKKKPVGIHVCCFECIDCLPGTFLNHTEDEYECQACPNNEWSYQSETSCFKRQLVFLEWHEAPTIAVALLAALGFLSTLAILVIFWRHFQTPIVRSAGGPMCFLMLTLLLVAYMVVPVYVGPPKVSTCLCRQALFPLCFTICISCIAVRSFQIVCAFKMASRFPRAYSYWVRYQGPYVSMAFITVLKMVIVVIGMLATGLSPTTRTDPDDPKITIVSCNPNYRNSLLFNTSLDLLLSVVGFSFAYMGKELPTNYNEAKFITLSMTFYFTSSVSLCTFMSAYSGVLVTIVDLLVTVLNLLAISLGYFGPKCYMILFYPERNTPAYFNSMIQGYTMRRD
T1 sequence (Q7RTX0 21-852): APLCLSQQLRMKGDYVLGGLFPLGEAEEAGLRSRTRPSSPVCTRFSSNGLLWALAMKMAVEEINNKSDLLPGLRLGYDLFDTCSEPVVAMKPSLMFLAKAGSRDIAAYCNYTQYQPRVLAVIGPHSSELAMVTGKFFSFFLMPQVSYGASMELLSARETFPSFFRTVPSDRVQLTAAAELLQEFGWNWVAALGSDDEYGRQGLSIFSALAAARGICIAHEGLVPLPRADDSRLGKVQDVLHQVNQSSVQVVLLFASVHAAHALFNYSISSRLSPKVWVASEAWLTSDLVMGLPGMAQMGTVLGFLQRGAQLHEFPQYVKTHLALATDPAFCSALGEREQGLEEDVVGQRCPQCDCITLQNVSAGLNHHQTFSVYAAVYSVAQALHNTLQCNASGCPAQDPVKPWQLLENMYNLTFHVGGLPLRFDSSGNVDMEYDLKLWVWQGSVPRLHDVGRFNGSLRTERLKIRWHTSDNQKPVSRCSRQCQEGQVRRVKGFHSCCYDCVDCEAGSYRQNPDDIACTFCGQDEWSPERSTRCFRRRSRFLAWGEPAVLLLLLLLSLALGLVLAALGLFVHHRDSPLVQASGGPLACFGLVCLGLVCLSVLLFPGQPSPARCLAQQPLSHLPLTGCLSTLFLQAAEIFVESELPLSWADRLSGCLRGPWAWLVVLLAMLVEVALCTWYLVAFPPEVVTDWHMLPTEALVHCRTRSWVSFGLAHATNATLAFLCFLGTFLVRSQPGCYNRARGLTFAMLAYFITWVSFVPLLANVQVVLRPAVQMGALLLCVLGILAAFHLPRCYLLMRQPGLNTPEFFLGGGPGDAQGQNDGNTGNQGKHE
Test: In vitro hT1R2/hT1R3 sweet taste receptor activation assay (FLIPR, dose response)
Type: cell-based
Conditions: Table E, Sweet Enhancer Amides; read-out: Sweet EC50
Summary of the method: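 S-9 cells expressing hT1R2/hT1R3, loaded with 4 µM Fluo-3AM 1 h at room temperature. Calcium response on FLIPR at room temperature in D-PBS, with 10 concentrations from 60 nM to 30 µM in duplicate.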

Point of comparison: `C=CCc1c(F)c(F)c(C(=O)N[C@@H](C)C(C)(C)C)c(F)c1F` [Example E130, (S)-4-allyl-N-(3,3-dimethylbutan-2-yl)-2,3,5,6-tetrafluorobenzamide], EC50 430 nM. Against it:
- CSc1nc(C)c(C(=O)Nc2ccccc2)c(C)c1C#N [Example E95, 5-Cyano-2,4-dimethyl-6-methylsulfanyl-N-phenyl-nicotinamide] — 8.3-fold higher, 3580 nM
- CC(C)(C)c1csc(NC(=O)c2ccncc2)n1 [Example E96, N-(4-tert-Butyl-thiazol-2-yl)-isonicotinamide] — 8.7-fold higher, 3730 nM
- COc1c(Cl)ccc(Cl)c1C(=O)Nc1ccc(C)cc1C [Example E97, 3,6-Dichloro-N-(2,4-dimethyl-phenyl)-2-methoxy-benzamide] — 9.9-fold higher, 4250 nM
- CCc1cccc(NC(=O)c2c(C)cccc2OC)c1 [Example E98, N-(3-ethylphenyl)-2-methoxy-6-methylbenzamide] — 11-fold higher, 4630 nM
- Cc1cc(Br)cc(C)c1NC(=O)N1Cc2ccccc2C1 [Example E99, N-(4-bromo-2,6-dimethylphenyl)isoindoline-2-carboxamide] — 2.2-fold higher, 930 nM
- Cc1cc([N+](=O)[O-])ccc1NC(=O)N1Cc2ccccc2C1 [Example E100, N-(2-methyl-4-nitrophenyl)isoindoline-2-carboxamide] — 3-fold higher, 1300 nM
- O=C(Nc1ccc(F)cc1F)N1Cc2ccccc2C1 [Example E101, N-(2,4-difluorophenyl)isoindoline-2-carboxamide] — 3.2-fold higher, 1370 nM
- Cc1c(NC(=O)N2Cc3ccccc3C2)cccc1[N+](=O)[O-] [Example E102, N-(2-methyl-3-nitrophenyl)isoindoline-2-carboxamide] — 4.7-fold higher, 2010 nM
- O=C(Nc1ccc(F)c(F)c1F)N1Cc2ccccc2C1 [Example E103, N-(2,3,4-trifluorophenyl)isoindoline-2-carboxamide] — 6-fold higher, 2580 nM
- Cc1ccc(NC(=O)N2Cc3ccccc3C2)cc1 [Example E104, N-p-tolylisoindoline-2-carboxamide] — 7.1-fold higher, 3050 nM
- O=C(Nc1ccc(Cl)cc1)N1Cc2ccccc2C1 [Example E105, N-(4-chlorophenyl)isoindoline-2-carboxamide] — 7.9-fold higher, 3400 nM
- O=C(Nc1ccccc1Cl)N1Cc2ccccc2C1 [Example E106, N-(2-chlorophenyl)isoindoline-2-carboxamide] — 9-fold higher, 3850 nM
- O=C(Nc1ccc(Cl)cc1Cl)N1Cc2ccccc2C1 [Example E107, N-(2,4-dichlorophenyl)isoindoline-2-carboxamide] — 9.7-fold higher, 4150 nM
- COc1ccc(NC(=O)N2Cc3ccccc3C2)cc1 [Example E108, N-(4-methoxyphenyl)isomdoline-2-carboxamide] — 12-fold higher, 4990 nM
- O=C(Nc1ccc(Cl)cc1Cl)N1CCc2ccccc2C1 [Example E109, N-(2,4-dichlorophenyl)-3,4-dihydroisogumoline-2(1H)-carboxamide] — 5.4-fold higher, 2340 nM
- N#Cc1ccccc1NC(=O)N1CCc2ccccc2C1 [Example E110, N-(2-cyanophenyl)-3,4-dihydroisoquinoline-2(1H)-carboxamide] — 5.8-fold higher, 2500 nM
- Cc1ccc(NC(=O)N2CCc3ccccc3C2)cc1 [Example E111, N-p-tolyl-3,4-dihydroisoquinoline-2(1H)-carboxamide] — 9.9-fold higher, 4270 nM
- Cc1c(Cl)cccc1NC(=O)N1CCc2ccccc2C1 [Example E112, N-(3-chloro-2-methylphenyl)-3,4-dihydroisoguinoline-2(1H)-carboxamide] — 10-fold higher, 4330 nM
- COc1ccc(NC(=O)N2CCc3ccccc3C2)c(OC)c1 [Example E113, N-(2,4-dimethoxyphenyl)-3,4-dihydroisoquinoline-2(1H)-carboxamide] — 10-fold higher, 4440 nM
- Cc1cc(Cl)ccc1NC(=O)N1Cc2cccc(C)c2C1 [Example E114, N-(4-chloro-2-methylphenyl)-4-methylisoindoline-2-carboxamide] — 2.3-fold lower, 190 nM
- Cc1ccc(NC(=O)N2Cc3cccc(C)c3C2)c(C)c1 [Example E115, N-(2,4-dimethylphenyl)-4-methylisoindoline-2-carboxamide] — 1.7-fold lower, 250 nM
- COc1ccc(NC(=O)N2Cc3cccc(C)c3C2)c(C)c1 [Example E116, N-(4-methoxy-2-methylphenyl)-4-methylisomdoline-2-carboxamide] — 1.7-fold higher, 710 nM
- COc1cc(F)c(NC(=O)N2Cc3cccc(C)c3C2)c(OC)c1 [Example E117, N-(2-fluoro-4,6-dimethoxyphenyl)-4-methylisoindoline-2-carboxamide] — 4.8-fold lower, 90 nM
- COc1ccc(NC(=O)N2Cc3cccc(C)c3C2)c(F)c1 [Example E118, N-(2-fluoro-4-methoxyphenyl)-4-methylisoindoline-2-carboxamide] — 4.3-fold lower, 100 nM
- O=C(Nc1cccc2c1CCCC2)N1CCc2ccccc21 [Example E119, N-(5,6,7,8-tetrahydronaphthalen-1-yl)indoline 1-carboxamide] — 2.5-fold higher, 1060 nM
- Cc1cccc(NC(=O)N2CCc3ccccc32)c1C [Example E120, N-(2,3-dimethylphenyl)indoline-1-carboxamide] — 5.5-fold higher, 2380 nM
- COc1cccc(C(=O)NC2CCCc3c(OC)cccc32)c1O (centres unmarked) [Example E121, 2-hydroxy-3-methoxy-N-(5-methoxy-1,2,3,4-tetrahydronaphthalen-1-yl)benzamide] — 3.7-fold higher, 1610 nM
- COc1cccc2c1CCCC2NC(=O)c1cccc(C)c1O (centres unmarked) [Example E122, 2-hydroxy-N-(5-methoxy-1,2,3,4-tetrahydronaphthalen-1-yl)-3-methylbenzamide] — 4.5-fold higher, 1950 nM
- COc1cccc2c1CCCC2NC(=O)c1cccc(-c2ccccc2)c1O (centres unmarked) [Example E123, 2-hydroxy-N-(5-methoxy-1,2,3,4-tetrahydronaphthalen-1-yl)-3-phenylbenzamide] — 6-fold higher, 2560 nM
- COc1cccc2c1CCCC2NC(=O)c1cccc(C(C)C)c1O (centres unmarked) [Example E124] — 6.1-fold higher, 2640 nM
- CCCc1nocc1C(=O)N[C@@H]1CCCc2c(C)cc(C)cc21 [Example E125, (R)-N-(5,7-dimethyl-1,2,3,4-tetrahydronaphthalen-1-yl)-3-propylisoxazole-4-carboxamide] — within 1.5-fold, 620 nM
- Cc1cccc2c1CCC[C@H]2NC(=O)c1cccc(Cl)c1O [Example E126, (R)-3-chloro-2-hydroxy-N-(5-methyl-1,2,3,4-tetrahydronaphthalen-1-yl)benzamide] — 2.1-fold higher, 890 nM
- CCc1nocc1C(=O)N[C@@H]1CCCc2c(C)cc(C)cc21 [Example E128, (R)-N-(5,7-dimethyl-1,2,3,4-tetrahydronaphthalen-1-yl)-3-ethylisoxazole-4-carboxamide] — 2.9-fold higher, 1240 nM
- C/C=C/c1c(F)c(F)c(C(=O)N[C@@H](C)C(C)C)c(F)c1F [Example E129, (S,E)-2,3,5,6-tetrafluoro-N-(3-methylbutan-2-yl)-4-(prop-1-enyl)benzamide] — within 1.5-fold, 410 nM
- CC(C)[C@H](C)NC(=O)c1c(F)c(F)c(-c2ccccc2)c(F)c1F [Example E131, (S)-2,3,5,6-tetrafluoro-N-(3-methylbutan-2-yl)-4-phenyl benzamide] — within 1.5-fold, 440 nM
- C=CCc1c(F)c(F)c(C(=O)NC2CCCCC2)c(F)c1F [Example E132, 4-allyl-N-cyclohexyl-2,3,5,6-tetrafluorobenzamide] — within 1.5-fold, 550 nM
- CCOc1c(F)c(F)c(C(=O)N[C@@H](C)C(C)C)c(F)c1F [Example E133, (S)-4-ethoxy-2,3,5,6-tetrafluoro-N-(3-methylbutan-2-yl)benzamide] — within 1.5-fold, 600 nM
